# Data published in ChEMBL document CHEMBL1152147, “Design at the atomic level: design of biaryloxazolidinones as potent orally active antibiotics” (Bioorg Med Chem Lett, 2008).
# What was measured:
# Enterococcus faecalis [1] = test: Antimicrobial activity against Linezolid-resistant Enterococcus faecalis ATCC 29212-P5 by NCCLS method; format: functional
# Haemophilus influenzae [2] = test: Antimicrobial activity against Haemophilus influenzae A1950 by NCCLS method; format: functional
# Haemophilus influenzae [3] = test: Antimicrobial activity against Haemophilus influenzae 1100 by NCCLS method; format: functional
# Haemophilus influenzae [4] = test: Antimicrobial activity against Haemophilus influenzae parent strain RD1 by NCCLS method; format: functional
# Enterococcus faecalis [5] = test: Antimicrobial activity against vanB+ expressing Enterococcus faecalis 1069 by NCCLS method; format: functional
# Enterococcus faecium = test: Antimicrobial activity against vanA+ expressing Enterococcus faecium A6349 by NCCLS method
# Haemophilus influenzae [6] = test: Antimicrobial activity against Haemophilus influenzae by NCCLS method; format: functional
# Streptococcus pneumoniae [7] = test: Antimicrobial activity against erm (B) expressing Streptococcus pneumoniae 02J1258 + L4 by NCCLS method; format: functional
# Streptococcus pyogenes [8] = test: Antimicrobial activity against erm (B) Streptococcus pyogenes msr610 by NCCLS method; format: functional
# Streptococcus pneumoniae [9] = test: Antimicrobial activity against mef (A) expressing Streptococcus pneumoniae 02J1175 by NCCLS method; format: functional
# Staphylococcus aureus = test: Antimicrobial activity against methicillin-resistant Staphylococcus aureus 67-0 by NCCLS method; format: functional
# Haemophilus influenzae [10] = test: Antimicrobial activity against Haemophilus influenzae 895 (AcrB-KO) by NCCLS method; format: functional
# Escherichia coli = test: Inhibition of Escherichia coli translation; format: functional, organism-based
# Enterococcus faecalis [11] = test: Antimicrobial activity against Linezolid-resistant Enterococcus faecalis P5 by NCCLS method; format: functional
# Streptococcus pyogenes [12] = test: Antimicrobial activity against erm (B) expressing Streptococcus pyogenes Msr 610 by NCCLS method; format: functional
Compound,MIC (Enterococcus faecalis [1]) [µg/mL],MIC (Haemophilus influenzae [2]) [µg/mL],MIC (Haemophilus influenzae [3]) [µg/mL],MIC (Haemophilus influenzae [4]) [µg/mL],MIC (Enterococcus faecalis [5]) [µg/mL],MIC (Enterococcus faecium) [µg/mL],MIC (Haemophilus influenzae [6]) [µg/mL],MIC (Streptococcus pneumoniae [7]) [µg/mL],MIC (Streptococcus pyogenes [8]) [µg/mL],MIC (Streptococcus pneumoniae [9]) [µg/mL],MIC (Staphylococcus aureus) [µg/mL],MIC (Haemophilus influenzae [10]) [µg/mL],IC50 (Escherichia coli) [nM],MIC (Enterococcus faecalis [11]) [µg/mL],MIC (Streptococcus pyogenes [12]) [µg/mL]
CC(=O)NC[C@H]1CN(c2ccc(-c3ccc(CNCc4cnoc4)cc3)c(F)c2)C(=O)O1,2,8,1,2,0.5,1,4,0.125,0.125,0.125,,,,,
CC(=O)NC[C@H]1CN(c2ccc(-c3ccc(Cn4ccnn4)cc3)c(F)c2)C(=O)O1,1,8,2,4,0.5,1,4,0.25,0.5,0.5,0.5,,,,
CC(=O)NC[C@H]1CN(c2ccc(-c3ccc(CNCCCF)cc3)c(F)c2)C(=O)O1,2,4,2,2,0.5,1,4,0.125,0.125,0.125,1,,,,
CC(=O)NC[C@H]1CN(c2ccc(-c3ccc(CNCc4ccnc5ccccc45)cc3)c(F)c2)C(=O)O1,,,,8,,,,,,0.5,,1,< 20,2,0.5
CC(=O)NC[C@H]1CN(c2ccc(-c3ccc(CNCc4ccncc4)cc3)c(F)c2)C(=O)O1,,,,8,,,,,,0.25,,0.5,50,2,0.5
CC(=O)NC[C@H]1CN(c2ccc(-c3ccc(Cn4ncnn4)cc3)c(F)c2)C(=O)O1,1,8,4,4,≤ 0.25,0.5,8,0.25,0.125,0.125,0.5,,,,
CC(=O)NC[C@H]1CN(c2ccc(-c3ccc(CNCC#N)cc3)c(F)c2)C(=O)O1,1,8,4,4,≤ 0.25,1,8,0.25,0.25,0.25,0.5,,,,
CC(=O)NC[C@H]1CN(c2ccc(-c3ccc(CNCc4cnn[nH]4)cc3)c(F)c2)C(=O)O1 [RADEZOLID],1,1,0.25,0.5,≤ 0.25,0.5,1,0.25,0.125,0.25,1,,,,
CC(=O)NC[C@H]1CN(c2ccc(-c3ccc(Cn4cnnn4)cc3)c(F)c2)C(=O)O1,1,8,2,2,0.5,1,4,0.5,0.5,0.25,1,,,,
CC(=O)NC[C@H]1CN(c2ccc(N3CCOCC3)c(F)c2)C(=O)O1 [LINEZOLID],32,32,16,16,,,32,,1,,,8,4600,32,1
CC(=O)NC[C@H]1CN(c2ccc(-c3ccc(CNCc4ccco4)cc3)c(F)c2)C(=O)O1,,,,4,,,,,,0.25,,0.5,40,4,0.25
